Our source for the GI50, TGI and CC50 values is patent US12384800B2, “Antitumoral compounds” (priority 2017, dated 2025).

Holding throughout (assay): cells
The test system of series [1] is A549 cells (lung carcinoma, NSCLC). Particulars: A549, SRB; for GI50: 72 hours treatment; for TGI: total cell growth inhibition; for TGI / CC50: 72 hours; for CC50: read-out: LC50, 50% net cell killing. An excerpt: (§1) The aim of this assay is to evaluate the in vitro cytostatic (ability to delay or arrest tumor cell growth) or cytotoxic (ability to kill tumor cells) activity of the samples being tested.
(§2) A colorimetric assay, using sulforhodamine B (SRB) reaction has been adapted to provide a quantitative measurement of cell growth and viability (following the technique described by Skehan et al. J. Natl. Cancer Inst. 1990, 82, 1107-1112). Another colorimetric assay based on 3-(4,5-Dimethylthiazol-2-yl)-2,5-diphenyltetrazolium bromide (MTT) reduction to a purple formazan has been also used to assess the antiproliferative activity (following the technique described by Mosmann et al. J. Immunol. Meth. 1983, 65, 55-63).
(§3) These forms of assays employ 96-well cell culture microplates following the standards of the American National Standards Institute and the Society for Laboratory Automation and Screening (ANSI SLAS 1-2004 (R2012) Oct. 12, 2011. All the cell lines used in this study were obtained from the American Type Culture Collection (ATCC) and derive from different types of human cancer.
(§4) A549, HT29, MDA-MB-231 and PSN1 cells were maintained in Dulbecco's Modified Eagle Medium (DMEM) while PC-3 and 22Rv1 cells were maintained in Roswell Park Memorial Institute Medium (RPMI). All cell lines were supplemented with 10% Fetal Bovine Serum (FBS), 2 mM L-glutamine, 100 U/mL penicillin, and 100 […] at 37° C., 5% CO2 and 98% humidity. For the experiments, cells were harvested from subconfluent cultures using trypsinization and resuspended in fresh medium before counting and plating.
(§5) A549, HT29, MDA-MB-231 and PSN1 cells were seeded in 96 well microtiter plates, at 5000 cells per well in aliquots of 150 μL, and allowed to attach to the plate surface for 18 hours (overnight) in drug free medium. After that, one control (untreated) plate of each cell line was fixed (as described below) and used for time zero reference value. Culture plates were then treated with test compounds (50 μL aliquots of 4× stock solutions in complete culture medium plus 4% DMSO) using ten ⅖ serial dilutions (concentrations ranging from 10 to 0.003 μg/mL) and triplicate cultures (1% final concentration in DMSO). After 72 hours treatment, the antitumor effect was measured by using the SRB methodology: Briefly, cells were washed twice with PBS, fixed for 15 min in 1% glutaraldehyde solution at room temperature, rinsed twice in PBS, and stained in 0.4% SRB solution for 30 min at room temperature. Cells were then rinsed several times with 1% acetic acid solution and air-dried at room temperature.
(§6) Effects on cell growth and survival were estimated by applying the NCI algorithm (Boyd M R and Paull K D. Drug Dev. Res. 1995, 34, 91-104). The values obtained in triplicate cultures were fitted by nonlinear regression to a four-parameters logistic curve by nonlinear regression analysis.

Series [2] deals with HT29 cells (colorectal adenocarcinoma). The settings on record: HT29, SRB; for GI50: 72 hours treatment; for TGI: total cell growth inhibition; for TGI / CC50: 72 hours; for CC50: read-out: LC50, 50% net cell killing.
Description: as §1, §2, §3, §4, §5, §6

Series [3] has as its system MDA-MB-231 cells (breast adenocarcinoma). The settings on record: MDA-MB-231, SRB; for GI50: 72 hours treatment; for TGI: total cell growth inhibition; for TGI / CC50: 72 hours; for CC50: read-out: LC50, 50% net cell killing.
Description: as §1, §2, §3, §4, §5, §6

Series [4] relates to PSN1 cells (pancreas adenocarcinoma). The settings on record: PSN1, SRB; for GI50: 72 hours treatment; for TGI: total cell growth inhibition; for TGI / CC50: 72 hours; for CC50: read-out: LC50, 50% net cell killing.
Description: as §1, §2, §3, §4, §5, §6

Consider `COc1c(C)cc2c(c1O)[C@@H]1[C@@H]3[C@@H]4SC[C@]5(N[C@H](COC(C)=O)Cc6c5[nH]c5ccccc65)C(=O)OC[C@@H](c5c6c(c(C)c(OC(C)=O)c54)OCO6)N3[C@@H](C#N)[C@H](C2)N1C` [Compound 3a-S], for which the GI50 (as a rule, the concentration giving 50% growth inhibition) in series [1] was 0.00311 µM; in series [2] it was 0.00299 µM; in series [3], 0.00287 µM; in series [4], 0.00215 µM. The TGI was found to be 3.23E−09 Molar in series [1], 3.23E−09 Molar in series [2], 3.59E−09 Molar in series [3] and 3.59E−09 Molar in series [4]. The CC50 in series [1] was greater than 0.12 µM; in series [2], greater than 0.12 µM; in series [3], 0.0049 µM; in series [4], 0.012 µM.

For `COc1c(C)cc2c(c1O)[C@@H]1[C@@H]3[C@@H]4SC[C@]5(N[C@H](C(=O)O)Cc6c5[nH]c5ccccc65)C(=O)OC[C@@H](c5c6c(c(C)c(OC(C)=O)c54)OCO6)N3[C@@H](C#N)[C@H](C2)N1C` [Compound 14-S, reference compound], the GI50 in series [1] is greater than 0.124 µM; in series [2], 0.121 µM; in series [3], 0.0545 µM; in series [4], greater than 0.124 µM. Besides, the TGI in series [1] was greater than 1.24E−07 Molar; in series [2], greater than 1.24E−07 Molar; in series [3], 1.13E−07 Molar; in series [4] it was greater than 1.24E−07 Molar. In addition, the CC50 in series [1], in series [2], in series [3] and in series [4] was greater than 0.124 µM throughout.

Consider `COc1ccc2[nH]c3c(c2c1)C[C@H](CO)N[C@]31CS[C@@H]2c3c(OC(C)=O)c(C)c4c(c3[C@H](COC1=O)N1[C@@H]2[C@H]2c3c(cc(C)c(OC)c3O)C[C@@H]([C@@H]1C#N)N2C)OCO4` [Compound 18-R], for which the TGI in series [1] is listed as 1.34E−09 Molar; in series [2], 1.34E−09 Molar; in series [3], 1.34E−09 Molar; in series [4], 1.06E−09 Molar. Further, the CC50 in series [3] is 0.00146 µM. This molecule also showed a GI50 in series [4] of 0.00057 µM.

For the molecule `COc1ccc2[nH]c3c(c2c1)C[C@@H](CO)N[C@]31CS[C@@H]2c3c(OC(C)=O)c(C)c4c(c3[C@H](COC1=O)N1[C@@H]2[C@H]2c3c(cc(C)c(OC)c3O)C[C@@H]([C@@H]1C#N)N2C)OCO4` [Compound 18-S], the GI50 in series [1] was found to be 0.0017 µM; in series [4] it was 0.000959 µM. Moreover, the TGI in series [1] is recorded as 3.03E−09 Molar; in series [2], 1.34E−09 Molar; in series [3], 1.34E−09 Molar; in series [4] it was 1.34E−09 Molar. In addition, the CC50 in series [3] was determined as 0.00158 µM.

As to `C=CCOC(=O)NC[C@H]1Cc2c([nH]c3ccc(OC)cc23)[C@@]2(CS[C@@H]3c4c(OC(C)=O)c(C)c5c(c4[C@H](COC2=O)N2[C@@H]3[C@H]3c4c(cc(C)c(OC)c4O)C[C@@H]([C@@H]2C#N)N3C)OCO5)N1` [Compound 25-R], the GI50 stood at 0.00132 µM in series [1] and 0.00154 µM in series [2]. In addition, the TGI came to 2.43E−09 Molar in series [1], 2.76E−09 Molar in series [2], 2.54E−09 Molar in series [3] and 2.32E−09 Molar in series [4]. For the same molecule, the CC50 was 0.00992 µM in series [1], greater than 0.11 µM in series [2], 0.00838 µM in series [3] and 0.00673 µM in series [4].

As for `C=CCOC(=O)NC[C@@H]1Cc2c([nH]c3ccc(OC)cc23)[C@@]2(CS[C@@H]3c4c(OC(C)=O)c(C)c5c(c4[C@H](COC2=O)N2[C@@H]3[C@H]3c4c(cc(C)c(OC)c4O)C[C@@H]([C@@H]2C#N)N3C)OCO5)N1` [Compound 25-S], the GI50 came to 0.00717 µM in series [1], 0.00717 µM in series [2], 0.00584 µM in series [3] and 0.00684 µM in series [4]. Also, the TGI was 7.61E−09 Molar in series [1], 7.72E−09 Molar in series [2], 9.04E−09 Molar in series [3] and 9.26E−09 Molar in series [4]. For the same molecule, the CC50 in series [1] was greater than 0.11 µM; in series [2], greater than 0.11 µM; in series [3], 0.0154 µM; in series [4] it was 0.0143 µM.

On to `COc1ccc2[nH]c3c(c2c1)C[C@H](CN)N[C@]31CS[C@@H]2c3c(OC(C)=O)c(C)c4c(c3[C@H](COC1=O)N1[C@@H]2[C@H]2c3c(cc(C)c(OC)c3O)C[C@@H]([C@@H]1C#N)N2C)OCO4` [Compound 26-R], for which the GI50 in series [1] was 0.00194 µM; in series [2], 0.000729 µM; in series [3] it was 0.00117 µM; in series [4], 0.000972 µM. Further, the TGI was determined as 3.40E−09 Molar in series [1], 1.58E−09 Molar in series [2], 1.22E−09 Molar in series [3] and 1.70E−09 Molar in series [4]. Also, the CC50 in series [1] is greater than 0.122 µM; in series [2] it was greater than 0.122 µM; in series [3] it was 0.00146 µM; in series [4], 0.00352 µM.

For the molecule `COc1ccc2[nH]c3c(c2c1)C[C@@H](CN)N[C@]31CS[C@@H]2c3c(OC(C)=O)c(C)c4c(c3[C@H](COC1=O)N1[C@@H]2[C@H]2c3c(cc(C)c(OC)c3O)C[C@@H]([C@@H]1C#N)N2C)OCO4` [Compound 26-S], the GI50 in series [1] was 0.0112 µM; in series [2] it was 0.00279 µM; in series [3], 0.00134 µM; in series [4], 0.00304 µM. In addition, the TGI came to 2.19E−08 Molar in series [1], 3.16E−09 Molar in series [2], 1.94E−09 Molar in series [3] and 3.28E−09 Molar in series [4]. The CC50 in series [1] is greater than 0.122 µM; in series [2], greater than 0.122 µM; in series [3], 0.00389 µM; in series [4], 0.00352 µM.

For `COc1ccc2[nH]c3c(c2c1)C[C@H](C(=O)O)N[C@]31CS[C@@H]2c3c(OC(C)=O)c(C)c4c(c3[C@H](COC1=O)N1[C@@H]2[C@H]2c3c(cc(C)c(OC)c3O)C[C@@H]([C@@H]1C#N)N2C)OCO4` [Compound 28-R, reference compound], the GI50 in series [1] is 0.167 µM; in series [2] it was 0.031 µM; in series [3], 0.0191 µM; in series [4], 0.0215 µM. For the same molecule, the TGI was found to be 3.58E−07 Molar in series [1], 3.34E−08 Molar in series [2], 3.22E−08 Molar in series [3] and 3.58E−08 Molar in series [4]. In addition, the CC50 was greater than 1.19 µM in series [1], greater than 1.19 µM in series [2], 0.0919 µM in series [3] and 0.0668 µM in series [4].

On to `COc1ccc2[nH]c3c(c2c1)C[C@@H](C(=O)O)N[C@]31CS[C@@H]2c3c(OC(C)=O)c(C)c4c(c3[C@H](COC1=O)N1[C@@H]2[C@H]2c3c(cc(C)c(OC)c3O)C[C@@H]([C@@H]1C#N)N2C)OCO4` [Compound 28-S, reference compound], for which the GI50 in series [1] is 0.489 µM; in series [2], 0.251 µM; in series [3], 0.167 µM; in series [4], 0.251 µM. Moreover, the TGI in series [1] was greater than 1.19E−06 Molar; in series [2], 3.46E−07 Molar; in series [3], 2.51E−07 Molar; in series [4], 3.94E−07 Molar. Further, the CC50 in series [1] is greater than 1.19 µM; in series [2], 0.633 µM; in series [3] it was 0.394 µM; in series [4] it was 0.692 µM.

Turning to `COc1c(C)cc2c(c1O)[C@@H]1[C@@H]3[C@@H]4SC[C@]5(NCCc6c5oc5ccccc65)C(=O)OC[C@@H](c5c6c(c(C)c(OC(C)=O)c54)OCO6)N3[C@@H](C#N)[C@H](C2)N1C` [Compound 31], the GI50 in series [1] turned out to be 0.0196 µM; in series [2], 0.0105 µM; in series [3], 0.00889 µM; in series [4], 0.0068 µM. Besides, the TGI came out at 2.09E−08 Molar in series [1], 1.57E−08 Molar in series [2], 1.70E−08 Molar in series [3] and 1.57E−08 Molar in series [4]. Further, the CC50 was 0.0235 µM in series [1], greater than 0.131 µM in series [2], 0.0353 µM in series [3] and 0.0431 µM in series [4].
